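Assay format: 96-well plates, 48-hour exposure. TGI: concentration producing complete growth inhibition.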
How the values were obtained:
Experiment in all cases: NCI-60 cell line screen, 48 h
HT29 colon = system: HT29 colon
MCF7 breast = system: MCF7 breast
OVCAR-8 ovarian = system: OVCAR-8 ovarian
MOLT-4 leukemia = system: MOLT-4 leukemia
NCI-H460 lung = system: NCI-H460 lung
OVCAR-4 ovarian = system: OVCAR-4 ovarian
SK-MEL-2 melanoma = system: SK-MEL-2 melanoma
OVCAR-3 ovarian = system: OVCAR-3 ovarian
SK-MEL-5 melanoma = system: SK-MEL-5 melanoma
EKVX NSCLC = system: EKVX NSCLC
K-562 leukemia = system: K-562 leukemia
CCRF-CEM leukemia = system: CCRF-CEM leukemia
MALME-3M melanoma = system: MALME-3M melanoma
NCI-H226 lung = system: NCI-H226 lung
IGROV1 ovarian = system: IGROV1 ovarian

CCOC(=O)C1=COC(C)(C)CC1=O
TGI (HT29 colon): > 100 µM
TGI (MCF7 breast): > 100 µM
TGI (OVCAR-8 ovarian): > 100 µM
TGI (MOLT-4 leukemia): > 100 µM
TGI (NCI-H460 lung): > 100 µM
TGI (OVCAR-4 ovarian): > 100 µM
TGI (SK-MEL-2 melanoma): > 100 µM
TGI (OVCAR-3 ovarian): > 100 µM
TGI (SK-MEL-5 melanoma): > 100 µM
TGI (EKVX NSCLC): > 100 µM
TGI (K-562 leukemia): > 100 µM

c1ccc(CNCCCNCCCCNCCCNCc2ccccc2)cc1
TGI (HT29 colon): 5.86 µM
TGI (MCF7 breast): 14.4 µM
TGI (OVCAR-8 ovarian): 27 µM
TGI (MOLT-4 leukemia): 2.74 µM
TGI (NCI-H460 lung): 19.1 µM
TGI (OVCAR-4 ovarian): 33.1 µM
TGI (SK-MEL-2 melanoma): 31.4 µM
TGI (OVCAR-3 ovarian): 28.3 µM
TGI (SK-MEL-5 melanoma): > 56.2 µM
TGI (CCRF-CEM leukemia): > 21.5 µM
TGI (MALME-3M melanoma): 5.01 µM
TGI (NCI-H226 lung): 17.2 µM
TGI (EKVX NSCLC): 23.1 µM
TGI (IGROV1 ovarian): 5.58 µM

N#Cc1c(N)nc2c(N=Nc3ccccc3)c(N)nn2c1Nc1ccccc1
TGI (HT29 colon): 31.4 µM
TGI (OVCAR-8 ovarian): 14.2 µM
TGI (MOLT-4 leukemia): 7.97 µM
TGI (NCI-H460 lung): 44.3 µM
TGI (OVCAR-4 ovarian): 46.4 µM
TGI (SK-MEL-2 melanoma): 48.2 µM
TGI (OVCAR-3 ovarian): 35.1 µM
TGI (SK-MEL-5 melanoma): 32.6 µM
TGI (CCRF-CEM leukemia): > 100 µM
TGI (MALME-3M melanoma): 49.7 µM
TGI (NCI-H226 lung): 53.9 µM
TGI (EKVX NSCLC): > 100 µM
TGI (IGROV1 ovarian): 29.3 µM
TGI (K-562 leukemia): > 100 µM

CCOC(=O)C(Cc1ccc2c(c1)CCC2)Cc1ccc2c(c1)CCC2
TGI (HT29 colon): > 100 µM
TGI (MCF7 breast): > 100 µM
TGI (OVCAR-8 ovarian): > 100 µM
TGI (MOLT-4 leukemia): 41.1 µM
TGI (NCI-H460 lung): > 100 µM
TGI (OVCAR-4 ovarian): > 100 µM
TGI (SK-MEL-2 melanoma): > 100 µM
TGI (OVCAR-3 ovarian): > 100 µM
TGI (SK-MEL-5 melanoma): 40.3 µM
TGI (CCRF-CEM leukemia): > 100 µM
TGI (MALME-3M melanoma): > 100 µM
TGI (EKVX NSCLC): > 100 µM
TGI (IGROV1 ovarian): > 100 µM
TGI (K-562 leukemia): 85.7 µM

CC12OC3(C(O)C1O)C(C(=O)O[C@H]3CO[Si](C)(C)C(C)(C)C)C2S(=O)(=O)c1ccccc1 (some centres not stated)
TGI (HT29 colon): > 100 µM
TGI (MCF7 breast): > 100 µM
TGI (OVCAR-8 ovarian): > 100 µM
TGI (MOLT-4 leukemia): 55.7 µM
TGI (NCI-H460 lung): > 100 µM
TGI (OVCAR-4 ovarian): 95 µM
TGI (SK-MEL-2 melanoma): > 100 µM
TGI (OVCAR-3 ovarian): > 100 µM
TGI (NCI-H226 lung): 58.3 µM
TGI (EKVX NSCLC): > 100 µM
TGI (IGROV1 ovarian): 97.4 µM
TGI (K-562 leukemia): > 100 µM

CCOC(=O)CCC(NC(=O)c1ccc(OCc2ccc3nc(OC)c(OC)nc3c2)cc1)C(=O)OCC (configuration not stated)
TGI (HT29 colon): > 100 µM
TGI (MCF7 breast): > 100 µM
TGI (OVCAR-8 ovarian): > 100 µM
TGI (MOLT-4 leukemia): > 100 µM
TGI (NCI-H460 lung): > 100 µM
TGI (SK-MEL-2 melanoma): 74.6 µM
TGI (OVCAR-3 ovarian): 49.9 µM
TGI (SK-MEL-5 melanoma): > 100 µM
TGI (CCRF-CEM leukemia): 93.5 µM
TGI (MALME-3M melanoma): 69.2 µM
TGI (NCI-H226 lung): > 100 µM
TGI (IGROV1 ovarian): > 100 µM
TGI (K-562 leukemia): > 100 µM

c1ccc(N=C2C(=Nc3ccccc3)N(C3CCCCC3)C(=NC3CCCCC3)N2c2ccccc2)cc1
TGI (HT29 colon): > 100 µM
TGI (MCF7 breast): > 100 µM
TGI (OVCAR-8 ovarian): > 100 µM
TGI (MOLT-4 leukemia): > 100 µM
TGI (NCI-H460 lung): > 100 µM
TGI (SK-MEL-2 melanoma): > 100 µM
TGI (SK-MEL-5 melanoma): > 100 µM
TGI (MALME-3M melanoma): > 100 µM
TGI (NCI-H226 lung): > 100 µM
TGI (EKVX NSCLC): > 100 µM
TGI (IGROV1 ovarian): > 100 µM
TGI (K-562 leukemia): > 100 µM

COC(=O)C(=O)c1cc2ccccc2n1S(=O)(=O)c1ccccc1
TGI (HT29 colon): > 100 µM
TGI (MCF7 breast): > 100 µM
TGI (OVCAR-8 ovarian): > 100 µM
TGI (MOLT-4 leukemia): > 100 µM
TGI (NCI-H460 lung): > 100 µM
TGI (OVCAR-4 ovarian): > 100 µM
TGI (SK-MEL-2 melanoma): > 100 µM
TGI (OVCAR-3 ovarian): > 100 µM
TGI (SK-MEL-5 melanoma): > 100 µM
TGI (CCRF-CEM leukemia): > 100 µM
TGI (MALME-3M melanoma): > 100 µM
TGI (EKVX NSCLC): > 100 µM
TGI (IGROV1 ovarian): > 100 µM
TGI (K-562 leukemia): > 100 µM

c1ccc2c(c1)ccc1nc3ccccn3c12
TGI (HT29 colon): > 100 µM
TGI (MCF7 breast): > 100 µM
TGI (OVCAR-8 ovarian): > 100 µM
TGI (MOLT-4 leukemia): > 100 µM
TGI (NCI-H460 lung): > 100 µM
TGI (OVCAR-3 ovarian): > 100 µM
TGI (SK-MEL-5 melanoma): > 100 µM
TGI (CCRF-CEM leukemia): > 100 µM
TGI (MALME-3M melanoma): > 100 µM
TGI (NCI-H226 lung): > 100 µM
TGI (EKVX NSCLC): > 100 µM
TGI (IGROV1 ovarian): > 100 µM
TGI (K-562 leukemia): > 100 µM

From PubChem BioAssay (NCI)
